Measurements taken from ChEMBL document CHEMBL3885861, “Open TG-GATES”.

Organism: Rattus norvegicus
Assay: Open TG-GATES - Regimen: Daily Repeat
Type: toxicity, organism-based, Sprague-Dawley
Set-up: regimen Daily Repeat, gender Male, age 6 weeks
Settings: in vivo, po, route gavage; for A/G / ALP / ALT / AST / BUN / CRE / Ca / Cl / DBIL / GLC / IP / K / LDH / Na / PL / RALB / TBIL / TC / TG / TP / gamma-GTP: tissue Plasma; for APTT / Bas / Eos / Fbg / Hb / Ht / Lym / MCH / MCHC / MCV / Mono / Neu / PT / Plat / RBC / Ret / WBC: tissue Blood; for KIDNEY_L / KIDNEY_R / KIDNEY_TOTAL: tissue Kidney; for LIVER: tissue Liver
[1] = 0 mg/kg, […], dose level Control, time 28 day
[2] = 1 mg/kg, 72 h, dose level Low, time 3 day
[3] = 1 mg/kg, […], dose level Low, time 7 day
[4] = 1 mg/kg, […], dose level Low, time 14 day
[5] = 1 mg/kg, […], dose level Low, time 28 day

SMILES: COc1ccc2c(c1)c(CC(=O)O)c(C)n2C(=O)c1ccc(Cl)cc1 [INDOMETHACIN]
- A/G [1]: 1.9
- ALP [1]: 622.6 IU/L
- ALT [1]: 27.6 IU/L
- AST [1]: 56.2 IU/L
- BUN [1]: 18.8 mg/dL
- CRE [1]: 0.7 mg/dL
- Ca [1]: 10.7 mg/dL
- Cl [1]: 105.2 meq/L
- DBIL [1]: 0.018 mg/dL
- GLC [1]: 206.4 mg/dL
- IP [1]: 7.5 mg/dL
- K [1]: 4.1 meq/L
- LDH [1]: 62.4 IU/L
- Na [1]: 139.2 meq/L
- PL [1]: 163.2 mg/dL
- RALB [1]: 4.3 g/dL
- TBIL [1]: 0.3 mg/dL
- TC [1]: 79.6 mg/dL
- TG [1]: 181.2 mg/dL
- TP [1]: 6.6 g/dL
- gamma-GTP [1]: 1.8 IU/L
- TERMINAL_BW [2]: 239.1 g
- APTT [2]: 16.8 s
- Bas [2]: 0%
- Eos [2]: 0.4%
- Fbg [2]: 230.8 mg/dL
- Hb [2]: 13.6 g/dL
- Ht [2]: 40.7%
- Lym [2]: 79%
- MCH [2]: 21.7 pg
- MCHC [2]: 33.5%
- MCV [2]: 65 fL
- Mono [2]: 7.6%
- Neu [2]: 12.8%
- PT [2]: 10.9 s
- Plat [2]: 102.8 x10_4/uL
- RBC [2]: 626.4 x10_4/ul
- Ret [2]: 7%
- WBC [2]: 89 x10_2/uL
- KIDNEY_L [2]: 1.1 g
- KIDNEY_R [2]: 1.1 g
- KIDNEY_TOTAL [2]: 2.2 g
- LIVER [2]: 11.8 g
- A/G [2]: 1.9
- ALP [2]: 1210.2 IU/L
- ALT [2]: 35.2 IU/L
- AST [2]: 64.4 IU/L
- BUN [2]: 16.8 mg/dL
- CRE [2]: 0.6 mg/dL
- Ca [2]: 10.6 mg/dL
- Cl [2]: 105.8 meq/L
- DBIL [2]: 0.032 mg/dL
- GLC [2]: 196.6 mg/dL
- IP [2]: 7.9 mg/dL
- K [2]: 4.9 meq/L
- LDH [2]: 91.4 IU/L
- Na [2]: 138.8 meq/L
- PL [2]: 165.2 mg/dL
- RALB [2]: 3.9 g/dL
- TBIL [2]: 0.3 mg/dL
- TC [2]: 86 mg/dL
- TG [2]: 108 mg/dL
- TP [2]: 5.9 g/dL
- gamma-GTP [2]: 1.2 IU/L
- TERMINAL_BW [3]: 272.4 g
- TERMINAL_BW [4]: 337.2 g
- TERMINAL_BW [5]: 425.7 g
- APTT [3]: 16.3 s
- Bas [3]: 0%
- Eos [3]: 0.6%
- Fbg [3]: 240.2 mg/dL
- Hb [3]: 13.8 g/dL
- Ht [3]: 41.9%
- Lym [3]: 82.8%
- MCH [3]: 21.1 pg
- MCHC [3]: 33.1%
- MCV [3]: 63.9 fL
- Mono [3]: 7.2%
- Neu [3]: 9.2%
- PT [3]: 11.7 s
- Plat [3]: 121.9 x10_4/uL
- RBC [3]: 656.8 x10_4/ul
- Ret [3]: 7.2%
- WBC [3]: 124.3 x10_2/uL
- APTT [4]: 16.5 s
- Bas [4]: 0%
- Eos [4]: 0.8%
- Fbg [4]: 232.4 mg/dL
- Hb [4]: 14.4 g/dL
- Ht [4]: 43.4%
- Lym [4]: 85.4%
- MCH [4]: 19.8 pg
- MCHC [4]: 33.1%
- MCV [4]: 59.8 fL
- Mono [4]: 4.8%
- Neu [4]: 9%
- PT [4]: 11.6 s
- Plat [4]: 119.2 x10_4/uL
- RBC [4]: 726.6 x10_4/ul
- Ret [4]: 4.3%
- WBC [4]: 140.8 x10_2/uL
- APTT [5]: 16.4 s
- Bas [5]: 0%
- Eos [5]: 0.8%
- Fbg [5]: 249.8 mg/dL
- Hb [5]: 15.2 g/dL
- Ht [5]: 45.7%
- Lym [5]: 83.6%
- MCH [5]: 19.1 pg
- MCHC [5]: 33.2%
- MCV [5]: 57.5 fL
- Mono [5]: 5.6%
- Neu [5]: 10.6%
- PT [5]: 11.8 s
- Plat [5]: 113.7 x10_4/uL
- RBC [5]: 795.8 x10_4/ul
- Ret [5]: 2.7%
- WBC [5]: 149.8 x10_2/uL
- KIDNEY_L [3]: 1.1 g
- KIDNEY_R [3]: 1.1 g
- KIDNEY_TOTAL [3]: 2.3 g
- KIDNEY_L [4]: 1.3 g
- KIDNEY_R [4]: 1.3 g
- KIDNEY_TOTAL [4]: 2.6 g
- KIDNEY_L [5]: 1.4 g
- KIDNEY_R [5]: 1.4 g
- KIDNEY_TOTAL [5]: 2.8 g
- LIVER [3]: 13.5 g
- LIVER [4]: 16.3 g
- LIVER [5]: 18.6 g
- A/G [3]: 2.1
- ALP [3]: 892.6 IU/L
- ALT [3]: 30.2 IU/L
- AST [3]: 61.4 IU/L
- BUN [3]: 20 mg/dL
- CRE [3]: 0.5 mg/dL
- Ca [3]: 11 mg/dL
- Cl [3]: 105.6 meq/L
- DBIL [3]: 0.006 mg/dL
- GLC [3]: 193.2 mg/dL
- IP [3]: 8.2 mg/dL
- K [3]: 4.9 meq/L
- LDH [3]: 89.2 IU/L
- Na [3]: 139.4 meq/L
- PL [3]: 156.6 mg/dL
- RALB [3]: 4 g/dL
- TBIL [3]: 0.4 mg/dL
- TC [3]: 77.4 mg/dL
- TG [3]: 149.6 mg/dL
- TP [3]: 6 g/dL
- gamma-GTP [3]: 1.4 IU/L
